Test results reported in patent publication US20040106545A1, “Compounds and methods for modulating cell adhesion” (priority 1996, published 2004).
pIC50: −log10 of the molar value. Positions of bridges follow the written chain, without caps; N, C: chain ends. Residues, ends and D or L forms follow the SMILES beside them.

Legend:
IAFp2 = format: cell-based, human; details: 3 h
How it was run: (§1)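 Human primary endothelial cells, fibroblast lines (IAFp2, WI-38) and cancer lines (MDA-MB231, PC-3) receive the CHAVC peptide or the CHGVC control at ≤100 μM. Viability is scored by MTT and DNA synthesis by ^3H-thymidine uptake.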

HUVEC = format: cell-based, human; details: 3 h
How it was run: as §1

MDA-MB231 = format: cell-based, human; details: 3 h
How it was run: as §1

HMVEC = format: cell-based, human; details: 3 h
How it was run: as §1

WI-38 = format: cell-based, human; details: 3 h
How it was run: as §1

PC-3 = format: cell-based, human; details: 3 h
How it was run: as §1

N-cadherin = biological target: T1, N-cadherin (Gallus gallus, UniProt P10288); assay: Neurite outgrowth of mouse cerebellar neurons on N-cadherin expressing 3T3 monolayers (Example 2); format: cell-based
T1 construct: expressed in transfected cells; host or cells: 3T3 fibroblasts (monolayer)
T1 sequence (P10288 165-912): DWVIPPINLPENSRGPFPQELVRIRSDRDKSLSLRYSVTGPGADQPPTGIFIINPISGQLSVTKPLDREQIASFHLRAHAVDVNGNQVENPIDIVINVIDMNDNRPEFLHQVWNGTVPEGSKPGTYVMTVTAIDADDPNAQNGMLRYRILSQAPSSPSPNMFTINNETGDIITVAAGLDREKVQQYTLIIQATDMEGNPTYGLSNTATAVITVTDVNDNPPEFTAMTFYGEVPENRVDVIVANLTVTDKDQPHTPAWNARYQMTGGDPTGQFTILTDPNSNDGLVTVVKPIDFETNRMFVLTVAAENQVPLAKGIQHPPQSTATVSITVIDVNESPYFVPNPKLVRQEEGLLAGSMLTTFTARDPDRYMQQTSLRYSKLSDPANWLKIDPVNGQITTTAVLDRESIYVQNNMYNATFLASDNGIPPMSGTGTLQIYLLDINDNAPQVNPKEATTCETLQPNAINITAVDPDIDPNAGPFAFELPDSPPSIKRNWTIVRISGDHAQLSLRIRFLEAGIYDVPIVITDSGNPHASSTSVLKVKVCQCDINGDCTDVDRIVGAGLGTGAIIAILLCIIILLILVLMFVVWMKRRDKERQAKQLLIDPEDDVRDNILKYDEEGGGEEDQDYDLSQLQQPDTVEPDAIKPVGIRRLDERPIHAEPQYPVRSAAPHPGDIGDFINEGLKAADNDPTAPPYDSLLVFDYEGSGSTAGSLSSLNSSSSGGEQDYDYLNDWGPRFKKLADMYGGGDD
Description: Within a representative neurite outgrowth assay, neurons may be cultured on a monolayer of cells (e.g., 3T3) that express N-cadherin. […] For example, neurons may be cultured on monolayers of 3T3 cells transfected with cDNA encoding N-cadherin essentially as described by Doherty and Walsh, Curr. Op. Neurobiol. 4:49-55, 1994; Williams et al., Neuron 13:583-594, 1994; Hall et al., Cell Adhesion and Commun. 3:441-450, 1996; Doherty and Walsh, Mol. Cell. Neurosci. 8:99-111, 1994; and Safell et al., Neuron 18:231-242, 1997. Briefly, monolayers of control 3T3 fibroblasts and 3T3 fibroblasts that express N-cadherin may be established by overnight culture of 80,000 cells in individual wells of an 8-chamber well tissue culture slide. 3000 cerebellar neurons isolated from post-natal day 3 mouse brains may be cultured for 18 hours on the various monolayers in control media (SATO/2% FCS), or media supplemented with various concentrations of the modulating agent or control peptide. The cultures may then be fixed and stained for GAP43 which specifically binds to the neurons and their neurites. The length of the longest neurite on each GAP43 positive neuron may be measured by computer assisted morphometry.
Neurons were cultured on monolayers of 3T3 cells transfected with cDNA encoding N-cadherin essentially as described by Doherty and Walsh, Curr. Op. Neurobiol. 4:49-55, 1994; Williams et al., Neuron 13:583-594, 1994; Hall et al., Cell Adhesion and Commun. 3:441-450, 1996; Doherty and Walsh, Mol. Cell. Neurosci. 8:99-111, 1994; Safell et al., Neuron 18:231-242, 1997. Briefly, monolayers of control 3T3 fibroblasts and 3T3 fibroblasts that express N-cadherin were established by overnight culture of 80,000 cells in individual wells of an 8-chamber well tissue culture slide. […] The length of the longest neurite on each GAP43 positive neuron was then measured by computer assisted morphometry.

[1] = tested on: MKL-F cells, breast cancer tumors; assay: Breast cancer tumors grown in nude mice; format: in vivo, mouse
Method: Breast cancer tumors were also grown in nude mice, as described above. After implanting tumor cells into the mammary fat pad, mice were injected once daily for four days with either the representative modulating agent N—Ac-CHAVC-NH2 (SEQ ID NO:10) or saline as a control. Mice were sacrificed 24 hours after the last injection, and tumors were photographed. […] These tumors are well vascularized.
MKL-F cells were injected into mammary fat pad, as described above, and the tumors were grown for 21 days before injection. Mice were then injected once daily for four days with either 20 mg/kg of the representative modulating agent N—Ac-CHAVC-NH2 (SEQ ID NO:10) or saline as a control. Mice were sacrificed 21 days after the last injection. Tumor volume was measured at day 18 following injection of cells, day 22 (following the first injection of modulating agent), and days 29, 32, 36, 39 and 42.

pIC50 (IAFp2)	pIC50 (MDA-MB231)	pIC50 (HMVEC)	pIC50 (PC-3)	Structure (SMILES)	pIC50 (HUVEC)	pIC50 (WI-38)	inhibition of neurite outgrowth on 3T3 cells expressing N-cadherin (N-cadherin; 500 μg/mL, 18 hours)	breast tumor growth ([1]; once daily for four days)	appearance of breast tumors (blood vessels) ([1]; once daily for four days (20 mg/kg), 24 hours after last injection)	inhibition of neurite outgrowth on 3T3 cells expressing N-cadherin (N-cadherin; 50 μg/mL)
< 4.00	< 4.00	< 4.00	< 4.00	CC(=O)N[C@H]1CSSC[C@@H](C(N)=O)NC(=O)[C@H](CC(=O)O)NC(=O)[C@H](C(C)C)NC(=O)[C@H](C)NC(=O)[C@H](Cc2c[nH]cn2)NC(=O)[C@H](C)NC1=O [N—Ac—CAHAVDC—NH2, N-Ac-Cys-Ala-His-Ala-Val-Asp-Cys-NH2] (Ac-CAHAVDC-NH2; disulfide 1-7)	< 4.00	< 4.00	–	–	–	–
–	–	–	–	CC(=O)N[C@H]1CSSC[C@@H](C(N)=O)NC(=O)[C@H](C(C)C)NC(=O)CNC(=O)[C@H](Cc2c[nH]cn2)NC1=O [N—Ac—CHGVC—NH2, reference compound]	–	–	had no effect on this process	–	–	–
–	–	–	–	CC(=O)N[C@H]1CSSC[C@@H](C(N)=O)NC(=O)[C@H](C(C)C)NC(=O)[C@H](C)NC(=O)[C@H](Cc2c[nH]cn2)NC1=O [N—Ac—CHAVC—NH2, N-Ac-Cys-His-Ala-Val-Cys-NH2]	–	–	completely inhibited neurite outgrowth	slow tumor growth	extensive rupturing of blood vessels	significantly inhibited neurite outgrowth
< 4.00	< 4.00	< 4.00	< 4.00	CC[C@H](C)[C@@H]1NC(=O)[C@H](CC(=O)O)NC(=O)[C@H](C(C)C)NC(=O)[C@H](C)NC(=O)[C@H](Cc2c[nH]cn2)NC(=O)[C@H](C)NC(=O)[C@@H](NC(C)=O)CSSC[C@@H](C(N)=O)NC1=O (Ac-CAHAVDIC-NH2; disulfide 1-8)	< 4.00	< 4.00	–	–	–	–
